From patent publication US11780830B2, “Triazolone derivatives or salts thereof and pharmaceutical compositions comprising the same” (YUHAN CORPORATION, priority 2018, dated 2023)
Where a name gives a salt, the structure may show the parent alone.

Key:
Assay type in all cases: biochemical
[1] = target: T1, recombinant human MAO-B (monoamine oxidase-B) (Homo sapiens, UniProt P27338); assay: Activity on recombinant human MAO-B, method similar to the VAP-1 assay; settings: substrate 1 mM benzylamine; read-out: Inhibitory Activity (IC50, nM) MAO-B
T1 construct: purchased Sigma-Aldrich
T1 sequence (P27338 1-520): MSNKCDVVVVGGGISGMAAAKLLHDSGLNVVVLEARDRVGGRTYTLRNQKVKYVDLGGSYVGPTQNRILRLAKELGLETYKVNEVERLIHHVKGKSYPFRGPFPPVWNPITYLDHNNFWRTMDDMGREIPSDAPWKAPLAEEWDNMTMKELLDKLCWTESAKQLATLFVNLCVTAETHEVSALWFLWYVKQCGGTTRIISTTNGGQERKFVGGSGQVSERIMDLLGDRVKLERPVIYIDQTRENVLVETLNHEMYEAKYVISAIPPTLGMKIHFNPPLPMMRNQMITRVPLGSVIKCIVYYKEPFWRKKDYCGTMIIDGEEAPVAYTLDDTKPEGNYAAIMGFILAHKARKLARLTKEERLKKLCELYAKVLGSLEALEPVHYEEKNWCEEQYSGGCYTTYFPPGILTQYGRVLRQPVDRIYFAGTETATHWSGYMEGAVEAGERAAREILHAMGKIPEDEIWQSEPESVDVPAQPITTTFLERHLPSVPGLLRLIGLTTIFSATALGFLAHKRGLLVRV
Experimental: (§1) The compounds according to the present technology were evaluated in terms of activity on recombinant human VAP-1 (R&D systems) by measuring the level of hydrogen peroxide in horseradish peroxidase (HRP)-coupled reaction using Amplex Red Hydrogen Peroxide Assay Kit (Molecular Probes, Invitrogen, USA). The experiment was carried out at room temperature using benzylamine as a substrate. In the HRP-coupled reaction, hydrogen peroxide oxidation of 10-acetyl-3,7-dihydroxyphenoxazine (Amplex Red reagent) produces resorufin, which is a highly fluorescent compound. Briefly, the test compound was dissolved in dimethyl sulfoxide (DMSO) at a concentration of 20 mM. The dose-response assessment was made by 1:3 serial dilution in DMSO, thereby creating an 8 point curve. The concentration of the upper part was controlled according to the efficacy of the compounds, followed by dilution with a reaction buffer solution to obtain a final DMSO concentration less than 1%. To each well of a 96 black well plate, human VAP-1 purified in 50 mM sodium phosphate buffer solution (pH7.4) was added. The test compounds dissolved in DMSO were incubated with the human VAP-1 enzymes at 37° C. for 30 minutes. After 30-minute incubation, each well is added with a reaction mixture containing 200 uM Amplex Red reagent prepared from 50 mM sodium phosphate buffer solution (pH 7.4), 1 mM benzylamine, and 1 U/mL HRP. Fluorescence intensity was measured at several time points during 1-2 hours using a microplate reader (Flexstation3, Molecular Devices) under the wavelength condition exciting at 544 nm and reading the emission at 590 nm. The inhibitory effect of the compounds was measured as a decrease (%) in the signal rate as compared to the control group without any inhibitor (only diluted DMSO). Data was fixed to a logistic model with four variables and IC50 value was calculated using GraphPad Prism program.
(§2) In addition, the compounds according to the present technology were evaluated in terms of activity on a recombinant human MAO-A (monoamine oxidase-A, Sigma-Aldrich) and a recombinant human MAO-B (monoamine oxidase-B, Sigma-Aldrich) by using as substrates, 0.5 mM tyramine and 1 mM benzylamine, respectively, with a method similar to the activity evaluation method for recombinant human VAP-1. The compounds according to the present technology were also evaluated in terms of activity on a recombinant human DAO (diamine oxidase, R&D systems) by using as a substrate 1 mM putrescine with a method similar to the activity evaluation method for recombinant human VAP-1.

[2] = target: T2, recombinant human DAO (diamine oxidase) (Homo sapiens, UniProt P19801); assay: Activity on recombinant human DAO, method similar to the VAP-1 assay; settings: substrate 1 mM putrescine; read-out: Inhibitory Activity (IC50, nM) DAO
T2 construct: purchased R&D systems
T2 sequence (P19801 20-751): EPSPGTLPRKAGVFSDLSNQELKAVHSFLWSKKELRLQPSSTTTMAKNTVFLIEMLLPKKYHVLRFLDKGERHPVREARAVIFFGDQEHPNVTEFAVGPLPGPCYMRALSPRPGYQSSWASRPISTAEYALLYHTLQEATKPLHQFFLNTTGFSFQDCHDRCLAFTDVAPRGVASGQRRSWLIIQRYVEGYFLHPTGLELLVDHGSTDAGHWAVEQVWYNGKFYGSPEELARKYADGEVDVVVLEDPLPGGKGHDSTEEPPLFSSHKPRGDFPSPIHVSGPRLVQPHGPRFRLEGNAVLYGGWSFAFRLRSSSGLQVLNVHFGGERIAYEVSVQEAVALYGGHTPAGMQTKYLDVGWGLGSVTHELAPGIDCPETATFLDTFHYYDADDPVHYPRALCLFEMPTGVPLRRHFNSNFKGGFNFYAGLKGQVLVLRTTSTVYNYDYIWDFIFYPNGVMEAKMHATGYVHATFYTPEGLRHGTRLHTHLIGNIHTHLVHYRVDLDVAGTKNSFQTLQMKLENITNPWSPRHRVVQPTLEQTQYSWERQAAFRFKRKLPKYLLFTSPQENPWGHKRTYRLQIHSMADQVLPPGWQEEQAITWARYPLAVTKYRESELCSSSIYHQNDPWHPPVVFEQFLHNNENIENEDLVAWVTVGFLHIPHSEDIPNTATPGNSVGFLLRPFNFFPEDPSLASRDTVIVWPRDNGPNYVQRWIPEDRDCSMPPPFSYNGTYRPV
Experimental: as §1, §2

[3] = target: T3, recombinant human MAO-A (monoamine oxidase-A) (Homo sapiens, UniProt P21397); assay: Activity on recombinant human MAO-A, method similar to the VAP-1 assay; settings: substrate 0.5 mM tyramine; read-out: Inhibitory Activity (IC50, nM) MAO-A
T3 construct: purchased Sigma-Aldrich
T3 sequence (P21397 1-527): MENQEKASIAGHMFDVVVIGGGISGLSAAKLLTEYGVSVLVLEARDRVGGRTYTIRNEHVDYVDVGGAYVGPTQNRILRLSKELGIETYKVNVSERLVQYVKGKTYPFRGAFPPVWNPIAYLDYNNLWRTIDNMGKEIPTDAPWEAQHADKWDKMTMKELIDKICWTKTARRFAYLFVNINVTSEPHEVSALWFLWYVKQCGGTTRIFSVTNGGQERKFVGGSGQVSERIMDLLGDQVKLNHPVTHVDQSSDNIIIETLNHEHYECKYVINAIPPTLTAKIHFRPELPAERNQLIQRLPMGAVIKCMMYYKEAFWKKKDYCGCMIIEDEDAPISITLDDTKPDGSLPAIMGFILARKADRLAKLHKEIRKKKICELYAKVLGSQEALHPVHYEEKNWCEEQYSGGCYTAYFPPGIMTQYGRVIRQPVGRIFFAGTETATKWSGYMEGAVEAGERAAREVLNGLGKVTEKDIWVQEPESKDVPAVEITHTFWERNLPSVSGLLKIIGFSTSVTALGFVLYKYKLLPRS
Experimental: as §1, §2

recombinant human VAP-1 = target: T4, recombinant human VAP-1 (Homo sapiens, UniProt Q16853); assay: Activity on recombinant human VAP-1, HRP-coupled Amplex Red hydrogen peroxide assay; settings: substrate 1 mM benzylamine; compound incubated with enzyme at 37° C. for 30 minutes; pH 7.4; read-out: Inhibitory Activity (IC50, nM) human VAP-1
T4 construct: purchased R&D systems
T4 sequence (Q16853 1-763): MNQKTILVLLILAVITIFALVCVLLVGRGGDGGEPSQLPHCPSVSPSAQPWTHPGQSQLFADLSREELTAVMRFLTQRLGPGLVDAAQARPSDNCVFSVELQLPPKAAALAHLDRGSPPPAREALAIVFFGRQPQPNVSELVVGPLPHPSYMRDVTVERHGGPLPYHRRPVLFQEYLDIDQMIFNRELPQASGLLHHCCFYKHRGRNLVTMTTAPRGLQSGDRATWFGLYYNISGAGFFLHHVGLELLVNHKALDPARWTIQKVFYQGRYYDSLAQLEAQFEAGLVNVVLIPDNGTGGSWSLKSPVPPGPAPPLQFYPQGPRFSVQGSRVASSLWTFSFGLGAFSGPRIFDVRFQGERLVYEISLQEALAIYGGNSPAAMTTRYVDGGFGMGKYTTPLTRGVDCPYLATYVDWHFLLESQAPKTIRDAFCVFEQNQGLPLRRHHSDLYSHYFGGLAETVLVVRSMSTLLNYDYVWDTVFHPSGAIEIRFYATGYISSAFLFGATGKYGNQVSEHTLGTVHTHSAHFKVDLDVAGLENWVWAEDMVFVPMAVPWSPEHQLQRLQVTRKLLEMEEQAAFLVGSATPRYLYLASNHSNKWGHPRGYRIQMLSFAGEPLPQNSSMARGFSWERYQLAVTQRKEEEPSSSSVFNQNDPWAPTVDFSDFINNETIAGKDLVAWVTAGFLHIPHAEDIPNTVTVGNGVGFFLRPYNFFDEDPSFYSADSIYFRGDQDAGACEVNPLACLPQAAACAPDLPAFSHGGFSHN
Experimental: as §1

| Structure (SMILES) | IC50 [1] [nM] | IC50 [2] [nM] | IC50 [3] [nM] | IC50 (recombinant human VAP-1) [nM] |
| --- | --- | --- | --- | --- |
| CN(C)S(=O)(=O)c1ccc(-c2ccc(Cn3cnn(C/C(=C/F)CN)c3=O)s2)cc1 [Example 9, 4-[5-(1-[(2E)-2-(aminomethyl)-3-fluoroprop-2-en-1-yl]-5-oxo-1,5-dihydro-4H-1,2,4-triazol-4-ylmethyl)thiophen-2-yl]-N,N-dimethylbenzenesulfonamide hydrochloride] | 1600 | 170 | > 100000 | 1.5 |
| COC(=O)c1ccc(-c2ccc(Cn3cnn(C/C(=C/F)CN)c3=O)s2)cc1 [Example 10, methyl 4-[5-(1-[(2E)-2-(aminomethyl)-3-fluoroprop-2-en-1-yl]-5-oxo-1,5-dihydro-4H-1,2,4-triazol-4-ylmethyl)thiophen-2-yl]benzoate hydrochloride] | 77 | 500 | > 100000 | 1.5 |
| COC(=O)c1cccc(-c2ccc(Cn3cnn(C/C(=C/F)CN)c3=O)s2)c1 [Example 11, methyl 3-[5-(1-[(2E)-2-(aminomethyl)-3-fluoroprop-2-en-1-yl]-5-oxo-1,5-dihydro-4H-1,2,4-triazol-4-ylmethyl)thiophen-2-yl]benzoate hydrochloride] | 35 | 1100 | > 100000 | 1.8 |
| COC(=O)c1ccc(-c2ccc(Cn3cnn(C/C(=C/F)CN)c3=O)s2)cc1F [Example 12, methyl 4-[5-(1-[(2E)-2-(aminomethyl)-3-fluoroprop-2-en-1-yl]-5-oxo-1,5-dihydro-4H-1,2,4-triazol-4-ylmethyl)thiophen-2-yl]-2-fluorobenzoate hydrochloride] | 110 | 200 | > 100000 | 1.8 |
| COC(=O)c1cc(F)cc(-c2ccc(Cn3cnn(C/C(=C/F)CN)c3=O)s2)c1 [Example 13, methyl 3-[5-(1-[(2E)-2-(aminomethyl)-3-fluoroprop-2-en-1-yl]-5-oxo-1,5-dihydro-4H-1,2,4-triazol-4-ylmethyl)thiophen-2-yl]-5-fluorobenzoate hydrochloride] | 260 | 320 | > 100000 | 0.8 |
| NC/C(=C\F)Cn1ncn(Cc2ccc(-c3ccc(F)c(F)c3)s2)c1=O [Example 14, 2-[(2E)-2-(aminomethyl)-3-fluoroprop-2-en-1-yl]-4-[5-(3,4-difluorophenyl)thiophen-2-yl]methyl-2,4-dihydro-3H-1,2,4-triazol-3-one hydrochloride] | < 100 | 2400 | > 100000 | 6.5 |
| NC/C(=C\F)Cn1ncn(Cc2ccc(-c3ccc(F)c(C(F)(F)F)c3)s2)c1=O [Example 15, 2-[(2E)-2-(aminomethyl)-3-fluoroprop-2-en-1-yl]-4-(5-[4-fluoro-3-(trifluoromethyl)phenyl]thiophen-2-ylmethyl)-2,4-dihydro-3H-1,2,4-triazol-3-one hydrochloride] | 5 | 670 | > 100000 | 0.9 |
| COc1ccc(-c2ccc(Cn3cnn(C/C(=C/F)CN)c3=O)s2)cc1OC [Example 16, 2-[(2E)-2-(aminomethyl)-3-fluoroprop-2-en-1-yl]-4-[5-(3,4-dimethoxyphenyl)thiophen-2-yl]methyl-2,4-dihydro-3H-1,2,4-triazol-3-one hydrochloride] | 300 | 2800 | > 100000 | 1.2 |
| COc1cc(-c2ccc(Cn3cnn(C/C(=C/F)CN)c3=O)s2)cc(OC)c1OC [Example 17, 2-[(2E)-2-(aminomethyl)-3-fluoroprop-2-en-1-yl]-4-[5-(3,4,5-trimethoxyphenyl)thiophen-2-yl]methyl-2,4-dihydro-3H-1,2,4-triazol-3-one hydrochloride] | 1000 | 620 | > 100000 | 1.2 |
| COc1cc(COc2c(C)cc(-c3ccc(Cn4cnn(C/C(=C/F)CN)c4=O)s3)cc2C)cc(OC)c1 [Example 18, 2-[(2E)-2-(aminomethyl)-3-fluoroprop-2-en-1-yl]-4-[(5-4-[(3,5-dimethoxybenzyl)oxy]-3,5-dimethylphenylthiophen-2-yl)methyl]-2,4-dihydro-3H-1,2,4-triazol-3-one hydrochloride] | 220 | 350 | 13000 | 2.1 |
